Data reported in patent US10919885B2, “Compounds and uses thereof” (Yumanity Therapeutics, Inc., priority 2018, dated 2021).

Molecular target: human SCD1 (Homo sapiens (Human), UniProt O00767)
Experiment: Yeast growth assay, strain expressing human SCD1 as the sole desaturase (reduced growth as surrogate for SCD inhibition)
Assay type: cell-based
Details: yeast with OLE1 deleted expressing human SCD1 from a plasmid; growth read as OD600 after 40 h at 30° C.; top drug concentration 33.3 μM
Description: Strains expressing SCD1 or SCD5 as the sole desaturase, the human SCD1 and SCD5 genes were used to evaluate inhibition of SCD1/SCD5 using reduced growth as a surrogate for SCD inhibition. These yeast strains express human SCD1 or SCD5 from a plasmid harbored in a strain in which the yeast OLE1 gene is deleted.
All compound profiling experiments were performed using the same basic protocol. Yeast were cultured using standard techniques in complete synthetic media lacking uracil and containing yeast nitrogen base supplemented with 2% (w/v) glucose (SD-Ura) Starter cultures were inoculated in 3 mL SD-Ura media containing 0.01% tween and 0.2 mM palmitoleic and oleic acid. Cultures were incubated overnight in a 30° C. shaker incubator (225 rpm). Saturated morning cultures were centrifuged, washed in SD-Ura media lacking TWEEN-20 and fatty acids, and then diluted 1:20 in fresh SD-Ura media also lacking TWEEN-20 and fatty acids.
Compound administration was performed in two separate steps. First, 15 μL of SD-Ura was dispensed into clear 384-well assay plates using a MULTIDROP™ Combi reagent dispenser. […] The cultures described above were centrifuged and washed with media lacking TWEEN-20 or oleic and palmitoleic acids.
After yeast delivery, assay plates were incubated under humidified conditions at 30° C. for 40 h. Yeast growth was monitored by reading the OD600 of each well using a microplate reader (Perkin Elmer EnVision™).

human SCD1, sequence (O00767 whole entry): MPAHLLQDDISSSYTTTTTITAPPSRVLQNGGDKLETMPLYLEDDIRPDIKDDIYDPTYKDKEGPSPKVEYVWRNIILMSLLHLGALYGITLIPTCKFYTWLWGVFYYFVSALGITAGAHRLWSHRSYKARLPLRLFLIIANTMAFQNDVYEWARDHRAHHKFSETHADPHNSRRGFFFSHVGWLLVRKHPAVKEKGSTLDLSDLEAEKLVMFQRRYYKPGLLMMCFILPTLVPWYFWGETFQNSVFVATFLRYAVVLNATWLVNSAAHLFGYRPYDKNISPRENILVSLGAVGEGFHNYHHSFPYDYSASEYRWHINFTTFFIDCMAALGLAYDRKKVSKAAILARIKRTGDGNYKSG

COc1ccc(C2CCCN2C(=O)c2cc(-c3ccc4c(C)nn(C)c4c3)on2)cc1 (stereo not shown) [Compound 394]
IC50: > 45 µM

O=C(c1cc(-c2ccc3c(c2)OCO3)on1)N1CCC[C@H]1C(F)(F)F [Compound 373]
IC50: > 45 µM

COc1ccc(C2CCCN2C(=O)c2cc(-c3ccc4c(c3)OCO4)on2)cc1 (stereo not shown) [Compound 356]
IC50: > 45 µM

COc1ccc(-c2cc(C(=O)N3CC(Cc4ccccc4)C3)no2)nn1 [Compound 256]
IC50: > 45 µM

O=C(c1cc(-c2ccc3c(c2)OCO3)on1)N1CCCC1c1ccccc1Br (stereo not shown) [Compound 390]
IC50: > 45 µM

Cn1ccnc1C1CCCN1C(=O)c1cc(-c2ccc3c(c2)OCO3)on1 (stereo not shown) [Compound 446]
IC50: > 45 µM

COCc1ncc(-c2cc(C(=O)Nc3cnn(Cc4ccccc4)c3)no2)s1 [Compound 140, N-(1-benzyl-1H-pyrazol-4-yl)-5-(2-(methoxymethyl)thiazol-5-yl)isoxazole-3-carboxamide]
IC50: 5.12 µM

COc1ccc([C@H]2CCCN2C(=O)c2cc(-c3ccc4c(c3)OCO4)on2)cc1 [Compound 360]
IC50: > 45 µM

O=C(c1cc(-c2ccc3c(c2)OCO3)on1)N1CCCC1c1ccc(F)cc1 (stereo not shown) [Compound 368]
IC50: > 45 µM

O=C(Nc1cnn(Cc2cccc(F)c2)c1)c1cc(-c2cncs2)on1 [Compound 69, N-(1-(3-fluorobenzyl)-1H-pyrazol-4-yl)-5-(thiazol-5-yl)isoxazole-3-carboxamide]
IC50: 0.19 µM

O=C(Nc1cnn(Cc2ccccc2)c1)c1cc(-c2cnco2)on1 [Compound 149, N-(1-benzyl-1H-pyrazol-4-yl)-5-(oxazol-5-yl)isoxazole-3-carboxamide]
IC50: > 45 µM

COc1ccc(-c2cc(C(=O)N3CCCC3c3ccccc3F)no2)nc1 (stereo not shown) [Compound 415]
IC50: 40.2 µM

O=C(Nc1cnn(Cc2ccccc2)c1)c1cc(-c2ccccn2)on1 [Compound 8, N-(1-benzylpyrazol-4-yl)-5-(2-pyridyl)isoxazole-3-carboxamide]
IC50: 0.7 µM

CC(C)(C)OC(=O)N1CCN(C(=O)c2cc(-c3ccc4c(c3)OCO4)on2)CC1 [Compound 267]
IC50: > 45 µM

CC(C)c1cc(C(=O)Nc2cnn(Cc3cnccc3C(F)(F)F)c2)no1 [Compound 161, 5-isopropyl-N-(1-((4-(trifluoromethyl)pyridin-3-yl)methyl)-1H-pyrazol-4-yl)isoxazole-3-carboxamide]
IC50: 25 µM

C[C@H]1CCCN1C(=O)c1cc(-c2ccc3c(c2)OCO3)on1 [Compound 369]
IC50: > 45 µM

O=C(c1cc(-c2ccccc2)on1)N1CCC2(CCN(c3ccccc3)C2)C1 (stereo not shown) [Compound 341]
IC50: > 45 µM

O=C(Nc1cnn(Cc2cccc(F)c2)c1)c1cc(Cl)on1 [Compound 105, 5-chloro-N-(1-(3-fluorobenzyl)-1H-pyrazol-4-yl)isoxazole-3-carboxamide]
IC50: 3.9 µM

O=C(c1cc(-c2ccccc2Cl)on1)N1CCC(c2ccccc2)C1 (stereo not shown) [Compound 333]
IC50: > 45 µM

O=C(c1cc(-c2ccccc2)on1)N1CC(Cc2ccccc2)C1 [Compound 211, (3-benzylazetidin-1-yl)-(5-phenylisoxazol-3-yl)methanone]
IC50: 0.12 µM

O=C(Nc1cnn(Cc2ccccc2)c1)c1cc(Cl)on1 [Compound 180]
IC50: > 45 µM

CC(C)c1cc(C(=O)N2CCC(c3cccc(F)c3)C2)no1 (stereo not shown) [Compound 350]
IC50: > 45 µM

CNC(=O)c1ccc(-c2cc(C(=O)N3CCC(F)(c4ccccc4)CC3)no2)cc1 [Compound 321]
IC50: > 45 µM

COc1ccc(-c2cc(C(=O)N3CCC[C@H]3c3ccccc3)no2)cn1 [Compound 410]
IC50: 27.1 µM

O=C(Nc1cnn(Cc2cccc(C(F)(F)F)c2)c1)c1cc(-c2ccco2)on1 [Compound 20, 5-(2-furyl)-N-[1-[[3-(trifluoromethyl)phenyl]methyl]pyrazol-4-yl]isoxazole-3-carboxamide]
IC50: > 45 µM

O=C(Nc1cnn(Cc2ccccc2)c1)c1cc(-c2ccco2)no1 [Compound 11, N-(1-benzylpyrazol-4-yl)-3-(2-furyl)isoxazole-5-carboxamide]
IC50: 0.05 µM

O=C(c1cc(-c2ccc3c(c2)OCO3)on1)N1CCC(O)(c2ccccc2)CC1 [Compound 300]
IC50: > 45 µM

O=C(c1cc(-c2ccc3c(c2)OCO3)on1)N1CCC(c2ccccc2C(F)(F)F)CC1 [Compound 302, [5-(1,3-benzodioxol-5-yl)isoxazol-3-yl]-[4-[2-(trifluoromethyl)phenyl]-1-piperidyl]methanone]
IC50: > 45 µM

O=C(Nc1cnn(Cc2ccccc2)c1)c1cc(N2CC[C@@H](O)C2)on1 [Compound 186, (R)—N-(1-benzyl-1H-pyrazol-4-yl)-5-(3-hydroxypyrrolidin-1-yl)isoxazole-3-carboxamide]
IC50: 2 µM

O=C(c1cc(-c2ccccc2)on1)N1CCn2ccnc2C1 [Compound 268]
IC50: 36 µM

O=C(Nc1cnn(Cc2ccccc2)c1)c1cc(-c2ccncn2)on1 [Compound 148]
IC50: 4 µM

Cc1cccc(C2CCCN2C(=O)c2cc(-c3ccc4c(c3)OCO4)on2)c1 (stereo not shown) [Compound 355]
IC50: > 45 µM

O=C(Nc1cnn(Cc2cnccc2C(F)(F)F)c1)c1cc(N2CCCCC2)on1 [Compound 182, 5-(piperidin-1-yl)-N-(1-((4-(trifluoromethyl)pyridin-3-yl)methyl)-1H-pyrazol-4-yl)isoxazole-3-carboxamide]
IC50: > 45 µM

O=C(c1cc(-c2ccccc2)on1)N1CCC(c2cccc(F)c2)CC1 [Compound 307, [4-(3-fluorophenyl)-1-piperidyl]-(5-phenylisoxazol-3-yl)methanone]
IC50: > 45 µM

O=C(Nc1cnn(Cc2ccccc2)c1)c1noc2c1CCCC2 [Compound 156, N-(1-benzyl-1H-pyrazol-4-yl)-4,5,6,7-tetrahydrobenzo[d]isoxazole-3-carboxamide]
IC50: 0.01 µM

O=C(Nc1cnn(Cc2cnccc2C(F)(F)F)c1)c1cc(-c2cnco2)on1 [Compound 171, 5-(oxazol-5-yl)-N-(1-((4-(trifluoromethyl)pyridin-3-yl)methyl)-1H-pyrazol-4-yl)isoxazole-3-carboxamide]
IC50: 19 µM

O=C(c1cc(-c2ccc(Cl)cn2)on1)N1CC(Cc2ccccc2)C1 [Compound 254]
IC50: > 45 µM

O=C(c1cc(-c2ccc3c(c2)OCO3)on1)N1CCC[C@H]1c1ccon1 [Compound 426]
IC50: > 45 µM

O=C(Nc1cnn(Cc2ccccc2)c1)c1cc(N2CCNCC2)on1 [Compound 190]
IC50: > 45 µM

COc1cccc(C2CCCN2C(=O)c2cc(-c3ccc4c(c3)OCO4)on2)c1 (stereo not shown) [Compound 365]
IC50: > 45 µM

O=C(Nc1cnn(Cc2ccccc2)c1)c1cc(N2CC[C@H](O)C2)on1 [Compound 187]
IC50: 15 µM

O=C(Nc1cnn(Cc2ccccc2)c1)c1cc(-c2nccs2)on1 [Compound 110, N-(1-benzyl-1H-pyrazol-4-yl)-5-(thiazol-2-yl)isoxazole-3-carboxamide]
IC50: 8.9 µM

O=C(c1cc(-c2ccc3c(c2)OCO3)on1)N1CCCC1c1cccc(F)c1 (stereo not shown) [Compound 367]
IC50: > 45 µM

O=C(Nc1cnn(Cc2ccccc2)c1)c1cc(-c2cncs2)on1 [Compound 37, N-(1-benzylpyrazol-4-yl)-5-thiazol-5-yl-isoxazole-3-carboxamide]
IC50: 0.26 µM

C[C@@H]1CCCN1C(=O)c1cc(-c2ccc3c(c2)OCO3)on1 [Compound 370]
IC50: > 45 µM

COC1(c2cc(C(=O)Nc3cnn(Cc4ccccc4)c3)no2)CCC1 [Compound 120]
IC50: 0.94 µM
